According to patent US20220204502A1, “CRYSTAL POLYMORPHISM OF PI3K INHIBITOR AND METHOD FOR PREPARING SAME” (BORYUNG PHARMACEUTICAL CO., LTD, priority 2019, published 2022):

Key:
[1] = Stress stability test (temperature / humidity); format: physicochemical; conditions: for Content / Individual impurity / Total impurity: wt %
Procedure: The crystal form I prepared in above Example 8 was left alone under the stress conditions (temperature: 60° C., humidity: 40° C., RH75%) for 0, 7 and 14 days, after which impurities were measured by using high speed liquid chromatography.

[2] = Pharmacokinetic (PK) test, oral capsule in beagle dog; format: in vivo; conditions: 100 mg oral, powder in capsule
Procedure: A pharmacokinetic (PK) experiment was performed on the crystal form I compound according to Example 8.
The powder of the crystal form I compound of Example 8 was filled into a capsule in an amount of 100 mg, and the capsule was orally administered to a beagle dog at 100 mg once a day, and then the biokinetics of the drug was confirmed.
Specifically, 100 mg of the crystal form I compound was orally administered to the beagle dog, and blood was collected at a predetermined time, so as to measure a concentration of (S)-4-((1-(4,8-dichloro-1-oxo-2-phenyl-1,2-dihydroisoquinoline-3-yl)ethyl)amino)pyrido[2,3-d]pyrimidine-5(8H)-one. With respect to pharmacokinetic parameters, the BA Calc 2007 program was used to calculate an area under the plasma concentration-time curve from dosing time to final plasma concentration quantification time t (AUCt), area under the plasma concentration-time curve from dosing time to infinite time (AUCi), peak plasma concentration (Cmax), time for maximum plasma concentration (Tmax), and terminal elimination half-life (t1/2). As a result, a significance between substances was confirmed by Student t-test (SPSS) at a 95% confidence interval, and the results thereof are shown in table 2 below.

[3] = Hygroscopicity (Dynamic Vapor Sorption, DVS) measurement; format: physicochemical; conditions: 25° C.; for hygroscopicity (overall assessment): DVS 0 to 95 % RH
Procedure: The hygroscopicity was tested by using the crystal form I of above Example 8.
i) Model name: DVS Intrinsic (Surface Measurement Systems LTD. UK)
ii) Humidity: Initial 0% maximum 95%
iii) Experiment time: 7 hours
After placing a certain amount (10 mg) of the crystal form I compound prepared in Example 8 on a sample pan in a sample chamber, nitrogen was flowed through a tube connected into the sample chamber for the first one hour so as to remove moisture in the chamber and moisture of the sample. Humidity in the chamber was controlled by controlling water vapor, and target relative humidity was increased step by step from initial 0% to 10% every 20 minutes, so as to measure a moisture content of crystal form I for 205 min. A mass of the sample was measured […] (from 0% RH to 95% RH) to collect data at 10% RH intervals, and a change in weight of the sample according to the increase and decrease of humidity was graphed.

[4] = Accelerated stability test (HPLC impurities, content, crystal form); format: physicochemical; conditions: for Crystal form / Content / Individual impurity / Total impurity: 4θ±2° C. and RH 75±5%; for Content / Individual impurity / Total impurity: wt %
Procedure: The powder of the crystal form I compound according to above Example 8 was doubly packed with an LDPE bag, then packed with a paperboard tube, and left alone at 4θ±2° C. and RH 75±5% for zero and six months, after which impurities were measured by using a high speed liquid chromatography under the following conditions.
<HPLC Conditions> • Detector: Ultraviolet absorption spectrophotometer (wavelength: 307 nm) • Column: Kromasil 100-5C18 (4.6×250 mm, […]) or a column similar thereto • Column temperature: 25° C. • Injection amount: 10 μl • Mobile phase: Mobile phase A—20 mmol/L of ammonium acetate buffer solution (pH 4.5, acetic acid), Mobile phase B—acetonitrile:methanol=8:2

Long-term stability test = format: physicochemical; conditions: for Content / Individual impurity / Total impurity / Crystal form: 25±2° C. and RH 6θ±5%; for Content / Individual impurity / Total impurity: capsule in PTP packing, wt %
Procedure: The powder of the crystal form I compound according to above Example 8 was doubly packed with an LDPE bag, then packed with a paperboard tube, and filled into a capsule, after which the capsule was subjected to PTP packing to carry out a long-term stability test (25±2° C. and RH 6θ±5%).

[5] = stress: humidity (40° C., RH75%), 7 days
[6] = stress: humidity (40° C., RH75%), 14 days
[7] = stress: humidity (40° C., RH75%), zero day (initial)
[8] = stress: temperature (60° C.), 7 days
[9] = stress: temperature (60° C.), 14 days
[10] = stress: temperature (60° C.), zero day (initial)

With C[C@H](Nc1ncnc2[nH]ccc(=O)c12)c1c(Cl)c2cccc(Cl)c2c(=O)n1-c1ccccc1 [Crystal form I, (S)-4-((1-(4,8-dichloro-1-oxo-2-phenyl-1,2-dihydroisoquinoline-3-yl)ethyl)amino)pyrido[2,3-d]pyrimidin-5(8H)-one] the “change of impurities and content (in words)” value (“change” for short) ([1]; stress conditions, 0, 7 and 14 days) was “neither significant change nor change with time”, the Content [1, 5] was 99.6% and the Individual impurity [1, 5] was 0.58%. The Total impurity [1, 5] was 0.64%, the Content [1, 6] was 100.8% and the Individual impurity [1, 6] was 0.58%. For the same compound, the Total impurity [1, 6] was 0.65%, the Content [1, 7] was 99.1% and the Individual impurity [1, 7] was 0.58%. The Total impurity [1, 7] was 0.66%, the Content [1, 8] was 100.0% and the Individual impurity [1, 8] was 0.58%. For the same compound, the Total impurity [1, 8] was 0.64%, the Content [1, 9] was 99.7% and the Individual impurity [1, 9] was 0.58%. For the same compound, the Total impurity [1, 9] was 0.65%, the Content [1, 10] was 99.1% and the Individual impurity [1, 10] was 0.58%. For the same compound, the Total impurity [1, 10] was 0.66%, the “bioavailability (in words)” value [2] was “excellent bioavailability” and the “concentration in blood (in words)” value [2] was “high concentration in blood”. The AUC(0-inf) ([2]; plasma) was 559 ng·h/mL, the AUC(0-t) ([2]; plasma) was 540 ng·h/mL and the Cmax ([2]; plasma) was 215 ng/mL. For the same compound, the Tmax ([2]; plasma) was 1.25 h, the half-life ([2]; plasma) was 93.6 min and the “hygroscopicity (overall assessment)” value [3] was “non-hygroscopicity”. For the same compound, the “hygroscopicity (overall assessment)” value ([3]; listed as crystal form I) was “remarkably excellent non-hygroscopicity”, the water (moisture) content by DVS ([3]; relative humidity 0.0 %) was 0.01% and the water (moisture) content by DVS ([3]; relative humidity 10.0 %) was 0.06%. It also gave a water (moisture) content by DVS ([3]; relative humidity 20.0 %) of 0.11%, a water (moisture) content by DVS ([3]; relative humidity 30.0 %) of 0.16% and a water (moisture) content by DVS ([3]; relative humidity 40.0 %) of 0.2%. The water (moisture) content by DVS ([3]; relative humidity 50.0 %) was 0.24%, the water (moisture) content by DVS ([3]; relative humidity 60.0 %) was 0.28% and the water (moisture) content by DVS ([3]; relative humidity 70.0 %) was 0.33%. It also gave a water (moisture) content by DVS ([3]; relative humidity 80.0 %) of 0.38%, a water (moisture) content by DVS ([3]; relative humidity 90.0 %) of 0.46% and a water (moisture) content by DVS ([3]; relative humidity 95.0 %) of 0.54%. For the same compound, the Crystal form ([4]; six months) was “Form I”, the Content ([4]; six months) was 99.7% and the Individual impurity ([4]; six months) was 0.02%. The Total impurity ([4]; six months) was 0.16%, the Crystal form ([4]; zero month (initial)) was “Form I” and the Content ([4]; zero month (initial)) was 100.0%. For the same compound, the Individual impurity ([4]; zero month (initial)) was 0.02%, the Total impurity ([4]; zero month (initial)) was 0.14% and the “change” value ([4]; accelerated conditions, six months) was “neither significant change nor change with time”. The Content (Long-term stability test; six months) was 99.7%, the Individual impurity (Long-term stability test; six months) was 0.02% and the Total impurity (Long-term stability test; six months) was 0.15%. It also gave a Content (Long-term stability test; zero month (initial)) of 100.0%, an Individual impurity (Long-term stability test; zero month (initial)) of 0.02% and a Total impurity (Long-term stability test; zero month (initial)) of 0.14%. The Crystal form (Long-term stability test; six months) was “Form I”, the Crystal form (Long-term stability test; zero month (initial)) was “Form I” and the “change” value (Long-term stability test; long-term conditions, six months) was “neither significant change nor change with time”.
